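Compound exposure: 48 hours, 5 concentrations, 96-well plates. GI50 is the concentration that inhibits growth by half. At the TGI there is no net growth.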
test system: SK-MEL-2 melanoma; assay: NCI tumour cell line growth inhibition, 48 h

Row | Structure (SMILES) | TGI | GI50
1 | Cc1cccc(C)c1NC(=O)C(Cc1c[nH]c2ccccc12)NC(=O)OCc1ccccc1 (stereo not drawn) | 34.4 µM | 
2 | S=C1NC2=C(CSC/C2=C\c2cccc(Br)c2)C(c2cccc(Br)c2)N1 (stereo not drawn) | > 100 µM | 
3 | Clc1ccc(-c2nnc3sc4nc5ccccc5c-4nn23)c(Cl)c1 | 82.2 µM | 
4 | C=C(C(=O)OCC)C(=O)OCC | > 100 µM | 
5 | N#CC(C#N)=C1SC(=Nc2ccccc2)C(=Nc2ccccc2)N1c1ccccc1 | 44.3 µM | 
6 | C[n+]1c(/C=C/c2c(O)ccc3ccccc23)ccc2ccccc21 | 13.3 µM | 5.91 µM
7 | O=C1c2cc(-c3ccccc3)cnc2S(=O)(=O)N1c1ccc(Br)cc1 | > 100 µM | 
8 | CC(=NNC(=S)Nc1ccccc1)c1cccc(C(C)=NNC(=S)Nc2ccccc2)n1 | > 100 µM | 
9 | CC(C)c1cc2c(c(O)c1O)[C@@]1(C(=O)O)CCCC(C)(C)[C@@H]1CC2 | 41.6 µM | 
10 | COC1=CC(=O)c2c(c(-c3nc(C)cs3)cn2C)C1=O | 10.8 µM | 
11 | CCCNc1ncnc2c1ncn2C | > 100 µM | 
12 | CCOS(C)(=O)=O | > 100 µM | 
13 | C=CCc1cc(-c2nc(=S)[nH][nH]2)ccc1N=NNc1ccc(C(=O)O)cc1 | > 100 µM | 
14 | CC(C)SC(=S)Sc1c(Cl)c(Cl)nc(Cl)c1Cl | 22.4 µM | 
15 | O=C(O)CN1CCNCCN(CC(=O)O)CCN(CC(=O)O)CCNCC1 | > 100 µM | 
16 | CCCCCCCCCCCC[S+](C)C | 17.6 µM | 
17 | CC(C)(C)[Si](C)(C)OCC1OC(n2ccc(=O)[nH]c2=O)C(O[Si](C)(C)C(C)(C)C)/C1=C/C#N (stereo not drawn) | 42.4 µM | 

test system: MDA-MB-231 breast; assay: NCI tumour cell line growth inhibition, 48 h

Row | Structure (SMILES) | TGI | GI50
18 | COc1ccc(N2C(=O)CC(=O)N(NC(=O)C(C)Oc3ccccc3C)C2=S)cc1 (stereo not drawn) | > 100 µM | 
19 | O=C1OC(C2Cc3ccc4ccccc4c3C2=O)c2ccccc21 (stereo not drawn) | > 100 µM | 
20 | C/C(=N\N=C1/C(=O)OC(c2ccccc2)=C1C(=O)c1ccccc1)c1ccc([N+](=O)[O-])cc1 | > 100 µM | 
21 | O=S(=O)(O)C(CO)c1ccccc1 (stereo not drawn) (tested in a mixture with another compound) | > 100 µM | 
22 | O=C1c2ccccc2C(=O)N1n1c(Cc2ccc([N+](=O)[O-])cc2)n[nH]c1=O | > 100 µM | 
23 | Cc1nn(-c2ccccc2)c2c1C(c1cc3ccccc3nc1Cl)NC(=O)N2 (stereo not drawn) | 59.3 µM | 
24 | COc1ccc(C2OC(c3ccncc3)=NN2C)cc1F (stereo not drawn) | > 100 µM | 
25 | Cc1cc(/N=C/c2ccc(N(C)C)cc2)n(-c2ccccc2)n1 | > 100 µM | 
26 | O=C(/C=C/c1ccccc1)Oc1ccc(C(=O)/C=C/c2ccccc2)cc1 | 23 µM | 
27 | COC(=O)C(Cc1ccc2c(c1)CCC2)Cc1ccc2c(c1)CCC2 | > 100 µM | 
28 | C/C(C[n+]1ccccc1)=N\N=C(N)N | > 100 µM | 
29 | NS(=O)(=O)c1ccc(NC(=S)/N=C/C2=C(O)c3ccccc3C2=O)cc1 | > 100 µM | 
30 | O=C1NC2c3c(I)sc(I)c3C(O)C2O1 (stereo not drawn) | > 100 µM | 
31 | Cc1nc(C)c(C(=O)NNC(=O)C[N+](C)(C)C)cc1C(=O)NNC(=O)C[N+](C)(C)C | > 100 µM | 
32 | NCCCN1c2ccccc2Sc2ccc(Cl)cc21 | > 8.72 µM | 
33 | CCOC(=O)c1cccc(N=Nc2nc[nH]c2/C=C/C(=O)OC)c1 | > 100 µM | 
34 | O=C(O)CN1CCN2CCCCCN(CC1)CCN(CC(=O)O)CC2 | > 100 µM | 

Row | Structure (SMILES) | TGI | GI50
35 | Cc1cccc(C)c1NC(=O)C(Cc1c[nH]c2ccccc12)NC(=O)OCc1ccccc1 (stereo not drawn) | 48.2 µM | 
36 | S=C1NC2=C(CSC/C2=C\c2cccc(Br)c2)C(c2cccc(Br)c2)N1 (stereo not drawn) | > 100 µM | 
37 | Clc1ccc(-c2nnc3sc4nc5ccccc5c-4nn23)c(Cl)c1 | > 100 µM | 
38 | C=C(C(=O)OCC)C(=O)OCC | > 100 µM | 
39 | N#CC(C#N)=C1SC(=Nc2ccccc2)C(=Nc2ccccc2)N1c1ccccc1 | 26.6 µM | 
40 | C[n+]1c(/C=C/c2c(O)ccc3ccccc23)ccc2ccccc21 | 12.2 µM | 5.27 µM
41 | O=C1c2cc(-c3ccccc3)cnc2S(=O)(=O)N1c1ccc(Br)cc1 | > 100 µM | 
42 | CC(=NNC(=S)Nc1ccccc1)c1cccc(C(C)=NNC(=S)Nc2ccccc2)n1 | > 100 µM | 
43 | CC(C)c1cc2c(c(O)c1O)[C@@]1(C(=O)O)CCCC(C)(C)[C@@H]1CC2 | 86.3 µM | 
44 | COC1=CC(=O)c2c(c(-c3nc(C)cs3)cn2C)C1=O | 72.6 µM | 
45 | CCCNc1ncnc2c1ncn2C | > 100 µM | 
46 | CCOS(C)(=O)=O | > 100 µM | 
47 | C=CCc1cc(-c2nc(=S)[nH][nH]2)ccc1N=NNc1ccc(C(=O)O)cc1 | > 100 µM | 
48 | CC(C)SC(=S)Sc1c(Cl)c(Cl)nc(Cl)c1Cl | 26.7 µM | 
49 | O=C(O)CN1CCNCCN(CC(=O)O)CCN(CC(=O)O)CCNCC1 | > 100 µM | 
50 | CCCCCCCCCCCC[S+](C)C | 10.1 µM | 
51 | CC(C)(C)[Si](C)(C)OCC1OC(n2ccc(=O)[nH]c2=O)C(O[Si](C)(C)C(C)(C)C)/C1=C/C#N (stereo not drawn) | > 83.5 µM | 

test system: OVCAR-3 ovarian; assay: NCI tumour cell line growth inhibition, 48 h

Row | Structure (SMILES) | TGI | GI50
52 | COc1ccc(N2C(=O)CC(=O)N(NC(=O)C(C)Oc3ccccc3C)C2=S)cc1 (stereo not drawn) | > 100 µM | 
53 | O=C1OC(C2Cc3ccc4ccccc4c3C2=O)c2ccccc21 (stereo not drawn) | 98.1 µM | 
54 | C/C(=N\N=C1/C(=O)OC(c2ccccc2)=C1C(=O)c1ccccc1)c1ccc([N+](=O)[O-])cc1 | > 100 µM | 
55 | O=S(=O)(O)C(CO)c1ccccc1 (stereo not drawn) (tested in a mixture with another compound) | > 100 µM | 
56 | O=C1c2ccccc2C(=O)N1n1c(Cc2ccc([N+](=O)[O-])cc2)n[nH]c1=O | > 100 µM | 
57 | Cc1nn(-c2ccccc2)c2c1C(c1cc3ccccc3nc1Cl)NC(=O)N2 (stereo not drawn) | > 100 µM | 
58 | COc1ccc(C2OC(c3ccncc3)=NN2C)cc1F (stereo not drawn) | > 100 µM | 
59 | Cc1cc(/N=C/c2ccc(N(C)C)cc2)n(-c2ccccc2)n1 | 82.4 µM | 
60 | O=C(/C=C/c1ccccc1)Oc1ccc(C(=O)/C=C/c2ccccc2)cc1 | 16 µM | 
61 | COC(=O)C(Cc1ccc2c(c1)CCC2)Cc1ccc2c(c1)CCC2 | > 100 µM | 
62 | C/C(C[n+]1ccccc1)=N\N=C(N)N | > 100 µM | 
63 | NS(=O)(=O)c1ccc(NC(=S)/N=C/C2=C(O)c3ccccc3C2=O)cc1 | > 100 µM | 
64 | O=C1NC2c3c(I)sc(I)c3C(O)C2O1 (stereo not drawn) | > 100 µM | 
65 | Cc1nc(C)c(C(=O)NNC(=O)C[N+](C)(C)C)cc1C(=O)NNC(=O)C[N+](C)(C)C | > 100 µM | 
66 | NCCCN1c2ccccc2Sc2ccc(Cl)cc21 | > 10 µM | 
67 | CCOC(=O)c1cccc(N=Nc2nc[nH]c2/C=C/C(=O)OC)c1 | > 100 µM | 
68 | O=C(O)CN1CCN2CCCCCN(CC1)CCN(CC(=O)O)CC2 | > 100 µM | 

Row | Structure (SMILES) | TGI | GI50
69 | Cc1cccc(C)c1NC(=O)C(Cc1c[nH]c2ccccc12)NC(=O)OCc1ccccc1 (stereo not drawn) | 69.3 µM | 
70 | S=C1NC2=C(CSC/C2=C\c2cccc(Br)c2)C(c2cccc(Br)c2)N1 (stereo not drawn) | > 100 µM | 
71 | Clc1ccc(-c2nnc3sc4nc5ccccc5c-4nn23)c(Cl)c1 | > 100 µM | 
72 | C=C(C(=O)OCC)C(=O)OCC | > 100 µM | 
73 | N#CC(C#N)=C1SC(=Nc2ccccc2)C(=Nc2ccccc2)N1c1ccccc1 | 6.04 µM | 
74 | C[n+]1c(/C=C/c2c(O)ccc3ccccc23)ccc2ccccc21 | 8.38 µM | 2.29 µM
75 | O=C1c2cc(-c3ccccc3)cnc2S(=O)(=O)N1c1ccc(Br)cc1 | > 100 µM | 
76 | CC(=NNC(=S)Nc1ccccc1)c1cccc(C(C)=NNC(=S)Nc2ccccc2)n1 | > 28.5 µM | 
77 | CC(C)c1cc2c(c(O)c1O)[C@@]1(C(=O)O)CCCC(C)(C)[C@@H]1CC2 | 57.3 µM | 
78 | COC1=CC(=O)c2c(c(-c3nc(C)cs3)cn2C)C1=O | 6.09 µM | 
79 | CCCNc1ncnc2c1ncn2C | > 100 µM | 
80 | CCOS(C)(=O)=O | > 100 µM | 
81 | C=CCc1cc(-c2nc(=S)[nH][nH]2)ccc1N=NNc1ccc(C(=O)O)cc1 | > 100 µM | 
82 | CC(C)SC(=S)Sc1c(Cl)c(Cl)nc(Cl)c1Cl | 3.52 µM | 
83 | O=C(O)CN1CCNCCN(CC(=O)O)CCN(CC(=O)O)CCNCC1 | > 100 µM | 
84 | CCCCCCCCCCCC[S+](C)C | 18.6 µM | 
85 | CC(C)(C)[Si](C)(C)OCC1OC(n2ccc(=O)[nH]c2=O)C(O[Si](C)(C)C(C)(C)C)/C1=C/C#N (stereo not drawn) | > 100 µM | 

— PubChem BioAssay (NCI)
